Legend:
[1] = system: LDLR on HepG2 cell surface; experiment: ICW, LDLR localized in cellular membranes of HepG2 (peptide alone); format: cell-based, human; details: 50 µM, vs control, average ± SD, four independent experiments in duplicate
Description: For the experiments, a total of 3 × 10^4 HepG2 cells/well were seeded in 96-well plates and treated with 4.0 μg/mL PCSK9-WT and 4.0 μg/mL PCSK9 + peptides P5 and/or P5 analogs (50 µM) and vehicle (H2O) for 2 h at 37 °C under 5% CO2 atmosphere. Thus, cells underwent to ICW assay following conditions already optimized. See Supplementary Materials for detailed information. […]
cLex Co., Nagano, Japan). The peptides (P5, P5-Best, P-H6A, and P5-S7A) were synthe-sized by the company GeneScript (Piscataway, NJ, USA) at >95% purity. The antibody against HMG-CoAR was bought from Abcam (Cambridge, UK). […]
HMG-CoAR Aactivity Assay. […] Subsequently, the samples were mixed and the absorbance at 340 nm read by the microplate reader Synergy H1 (Winooski, VT, USA) at time 0 and 10 min. The HMG-CoAR-dependent oxidation of NADPH and the inhibition properties of peptides were measured by absorbance reduction, which is directly proportional to enzyme activ- […]
In Vitro PCSK9-LDLR Binding Assay. […] The reaction was stopped with 2.0 M sulfuric acid and the absorbance at 450nm was measured using the Synergy H1 fluorescent plate reader […]

PCSK9 = system: PCSK9; set-up: method as in 3 sources, ref 49 = [49]; PMID 35011066; doi:10.3390/nu14010193; 49. Macchi C. Greco M.F. Ferri N. Magni P. Arnoldi A. Corsini A. Sirtori C.R. Ruscica M. Lammi C. Impact of Soy β-Conglycinin Peptides on PCSK9 Protein Expression in HepG2 Cells Nutrients 2021 14 193 ||| ref 22 = [22]; doi:10.1016/j.jff.2017.02.009; 22. Zanoni C. Aiello G. Arnoldi A. Lammi C. Investigations on the hypocholesterolaemic activity of […] and LTFPGSAED, two peptides from lupin β-conglutin: Focus on LDLR and PCSK9 pathways J. Fu ||| ref 24 = [24]; PMID 33808034; doi:10.3390/nu13030863; 24. Lammi C. Aiello G. Bollati C. Li J. Bartolomei M. Ranaldi G. Ferruzza S. Fassi E.M.A. Grazioso G. Sambuy Y. Trans-Epithelial Transport, Metabolism, and Biological Activity Assessment of the Multi-; details: through downregulation of HNF-1α; cited from earlier work

Sequence: LILPKHSDAD [Peptide P5, natural peptide derived from a peptic lupin protein hydrolysate]
- increase of LDLR level in cellular membranes of HepG2 [1]: 153.6 ± 16.4%
- PCSK9 protein levels and secretion (P5, earlier work, words) (PCSK9): reduces the PCSK9 protein levels and its secretion

Source: publication PMC8951016, “Computational Design and Biological Evaluation of Analogs of Lupin Peptide P5 Endowed with Dual PCSK9/HMG-CoAR Inhibiting Activity” (Pharmaceutics, 2022)
